These results are taken from US20250059186A1, “Tricyclic Fused Heterocyclic PDE3/4 Dual Inhibitor and Use Thereof” (XIZANG HAISCO PHARMACEUTICAL CO., LTD., priority 2021, published 2025).

A word on the inhibition: it is the drop in the measured response relative to a control, in per cent. Low values mean a weak effect, high ones a strong effect. As a reminder, the IC50 is the concentration at which inhibition is half-maximal.

Like-named read-outs stand apart in the source and are kept apart here.

For series [1] the following is noted: cited from earlier work.
Series [2] deals with guinea pig tracheal rings. Nature of the series: Experiment on guinea pig tracheal rings (carbachol constriction). The note with it: 10 μM single dose; for OT50 (50% inhibition onset time) / RT50 (50% inhibition recovery time): carbachol-constricted tracheal rings; for inhibition at 10 µM: Cavia porcellus, 6.75 h. As to the method:
3. Experiment on Guinea Pig Tracheal Rings
Experimental method: guinea pig tracheal rings were placed in a specific culture medium (Krebs-Henseleit) and balanced under 1 g tension for 40 minutes; carbachol was added in an amount sufficient to achieve 100% constriction of the tracheal rings; […] contractile tension of the tracheal rings.

For series [3] the following is noted: in vivo; cited from earlier work.
Series [4] has as its system methacholine-induced bronchoconstriction. Nature of the series: Inhibitory effect on methacholine-induced bronchoconstriction in guinea pigs (WBP, Penh). The class given is in vivo, guinea pig. The note with it: male guinea pigs, oral dose of 10 mg/kg, 6 h after drug exposure. As to the method: 2. Study on the Inhibitory Effect of Compounds on Methacholine-Induced Bronchoconstriction in Guinea Pigs
Male guinea pigs were selected as test animals in this study. The drug-treated group was orally administered with RPL554, compound 1 and compound 7 at a dose of 10 mg/kg, respectively, and the control group was administered with an equal dose of solvent. The animals were placed in a WBP instrument aerosol chamber 2 h, 4 h and 6 h after drug exposure. After the animals were adapted, they inhaled 300 μL of […] solution (0.5 mg/mL) by nebulization. After the end of the methacholine (Mch) exposure, Penh values were recorded continuously for 7 minutes. The percentage of bronchoconstriction inhibition by the compounds was calculated based on the Penh values.

The next series has as its system PDE4. To be noted: cited from earlier work.
A further series has as its target PDE3A recombinant enzyme (Homo sapiens (Human), UniProt Q14432). Nature of the series: In vitro assay of inhibitory activity against PDE 3A enzyme (FP, FAM-cAMP). The class given is biochemical. As to the method: 1. In Vitro Assay of the Inhibitory Activity of Compounds Against PDE 3A and PDE 4B2 Enzymes
• Envision 2104 Multilabel Reader (PerkinElmer) • Black 96-well Plate (Cat #6005540, PerkinElmer) • PDE3A Assay Kit (BPS, Cat. 79736), PDE4B2 Assay Kit (BPS, Cat. 60343) • PDE3A recombinant enzyme • PDE4B2 recombinant enzyme • FAM-Cyclic-3′, 5′-AMP • PDE assay buffer • Binding Agent • Binding Agent Diluent (cAMP)
• 1) Prepare FAM cAMP working solution: 20 μL of FAM-Cyclic-3′, 5′-AMP stock was added to 1980 μL of PDE assay buffer. The mixture was added to all wells at 25 μL/well. • 2) Prepare compound solution: the test compounds were dissolved in DMSO to make a 10 mM stock solution. The compound stock solution was diluted in DMSO to a 100× Top Dose diluent. 5 μL of 100× Top Dose diluent was added to 45 μL of PDE assay buffer to prepare a compound Top Dose working solution. Then, the compound working solution was subjected to double dilution with PDE assay buffer containing 10% DMSO to prepare compound working solutions of various concentrations. The compound working solutions were added to compound wells at 5 μL/well. 5 μL of PDE assay buffer containing 10% DMSO was added to each control well. • 3) Prepare PDE enzyme solution: PDE3A and PDE4B2 enzyme stock solutions were diluted to 150 pg/μL and 50 pg/μL, respectively, with PDE assay buffer, and added to all compound wells and Vehicle control wells at 20 μL/well. 20 μL of PDE assay buffer was added to Blank control wells. • 4) React at room temperature for 1 h. • 5) Prepare Binding Agent: 80 μL of binding agent was added to 7920 μL of binding agent diluent, and the mixture was mixed well and added to all wells at 100 μL/well. • 6) React at room temperature for 1 h. • 7) Read FP on Envision. • 8) Calculation formula for original data:
[formula] • FPS=sample FP • FPV=Vehicle control FP • FPB=Blank control FP.
Nonlinear regression analysis of log[dose]-inhibition rate was performed by graphpad and IC50 was calculated.

Setting [5] is: class symbols, read-out: PDE 3A IC50.
The mark [6] stands for this setting: values in text, read-out: PDE 3 IC50.

PDE3A recombinant enzyme, sequence (Q14432 whole entry): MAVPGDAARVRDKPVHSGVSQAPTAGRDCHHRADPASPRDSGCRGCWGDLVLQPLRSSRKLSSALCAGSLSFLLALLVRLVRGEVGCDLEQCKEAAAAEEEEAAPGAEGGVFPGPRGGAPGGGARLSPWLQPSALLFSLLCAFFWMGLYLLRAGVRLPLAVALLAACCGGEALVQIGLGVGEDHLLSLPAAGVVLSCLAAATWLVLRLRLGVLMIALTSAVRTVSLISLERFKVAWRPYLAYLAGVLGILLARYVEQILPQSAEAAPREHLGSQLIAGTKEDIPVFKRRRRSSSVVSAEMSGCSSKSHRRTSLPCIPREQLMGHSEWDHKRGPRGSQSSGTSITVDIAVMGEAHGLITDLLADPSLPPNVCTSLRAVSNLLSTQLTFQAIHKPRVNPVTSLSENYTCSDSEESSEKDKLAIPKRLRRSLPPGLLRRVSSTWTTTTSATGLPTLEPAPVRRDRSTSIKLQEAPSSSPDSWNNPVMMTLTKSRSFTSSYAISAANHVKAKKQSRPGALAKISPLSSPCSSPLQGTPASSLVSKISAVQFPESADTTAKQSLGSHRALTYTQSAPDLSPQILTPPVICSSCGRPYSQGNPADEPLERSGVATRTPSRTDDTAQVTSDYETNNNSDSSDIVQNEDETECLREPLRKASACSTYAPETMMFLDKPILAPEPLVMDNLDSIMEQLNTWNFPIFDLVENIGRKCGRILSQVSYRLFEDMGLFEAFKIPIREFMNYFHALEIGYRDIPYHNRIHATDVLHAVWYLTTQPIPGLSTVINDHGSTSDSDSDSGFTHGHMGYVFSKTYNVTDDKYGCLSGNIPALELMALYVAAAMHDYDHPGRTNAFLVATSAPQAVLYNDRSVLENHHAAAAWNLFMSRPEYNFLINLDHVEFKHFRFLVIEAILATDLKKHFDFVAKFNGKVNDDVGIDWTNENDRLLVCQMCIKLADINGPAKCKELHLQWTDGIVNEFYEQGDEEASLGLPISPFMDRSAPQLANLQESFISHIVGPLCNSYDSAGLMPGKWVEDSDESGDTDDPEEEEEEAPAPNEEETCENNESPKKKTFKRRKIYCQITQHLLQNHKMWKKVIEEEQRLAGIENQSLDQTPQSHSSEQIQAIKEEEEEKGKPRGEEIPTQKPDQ

Consider `COc1cc2c(cc1OC)-c1c/c(=N\c3c(C)cc(C)cc3C)n(CCNC(N)=O)c(=O)n1CC2` [RPL554, reference compound], for which the solubility entry in series [1] is on record as “poor solubility”. In addition, in series [2], the “OT50 (50% inhibition onset time)” value is recorded as 25.51 min, the “RT50 (50% inhibition recovery time)” value is greater than 6.75 h and the inhibition at 10 µM is 56.7%. In addition, in series [3], the plasma clearance result is reported as “high plasma clearance”. Also, the “Inhibition rate on bronchoconstriction” value in series [4] worked out at 35%. In the series on PDE4, the PDE4 inhibitory activity entry is on record as “unsatisfactory”.
As for `[2H]C([2H])([2H])Oc1cc2c(cc1OC)-c1c/c(=N\c3c(C)cc(C)cc3C)n(CCNC(N)=O)c(=O)n1CC2` [Compound 1, (E)-1-(2-(2-(mesitylimino)-10-methoxy-9-(methoxy-d3)-4-oxo-6,7-dihydro-2H-pyrimido[6,1-a]isoquinolin-3(4H)-yl)ethyl)urea], the “Inhibition rate on bronchoconstriction” value in series [4] was 69%. For the same compound, the IC50 on PDE3A recombinant enzyme (setting [5]) is less than 50 nM; on PDE3A recombinant enzyme (setting [6]) it was 0.15 nM.
Regarding `COc1cc2c(cc1OC)-c1c/c(=N\c3c(C)cc(C4CC4)cc3C)n(CCNC(N)=O)c(=O)n1CC2` [Compound 3, (E)-1-(2-(2-((4-cyclopropyl-2,6-dimethylphenyl)imino)-9,10-dimethoxy-4-oxo-6,7-dihydro-2H-pyrimido[6,1-a]isoquinolin-3(4H)-yl)ethyl)urea], the IC50 at PDE3A recombinant enzyme (setting [5]) was less than 50 nM.
Consider `COc1cc2c(cc1OC)-c1c/c(=N\c3c(C)cc(C(F)(F)F)cc3C)n(CCNC(N)=O)c(=O)n1CC2` [Compound 2, (E)-1-(2-(2-((2,6-dimethyl-4-(trifluoromethyl)phenyl)imino)-9,10-dimethoxy-4-oxo-6,7-dihydro-2H-pyrimido[6,1-a]isoquinolin-3(4H)-yl)ethyl)urea], for which the IC50 on PDE3A recombinant enzyme was in the range of 50 to 100 nM.
For `[2H]C([2H])([2H])Oc1cc2c(cc1OC)CCn1c-2c/c(=N\c2c(C)cc(C)cc2C)n(CCNC(N)=O)c1=O` [Compound 7, (E)-1-(2-(2-(mesitylimino)-9-methoxy-10-(methoxy-d3)-4-oxo-6,7-dihydro-2H-pyrimido[6,1-a]isoquinolin-3(4H)-yl)ethyl)urea], in series [2], the “OT50 (50% inhibition onset time)” value was found to be 19.97 min, the “RT50 (50% inhibition recovery time)” value is given as greater than 6.75 h and the inhibition at 10 µM was found to be 75.9%. For the same compound, the “Inhibition rate on bronchoconstriction” value in series [4] is on record as 80%. In addition, the IC50 on PDE3A recombinant enzyme (setting [5]) was less than 50 nM. Further, on PDE3A recombinant enzyme (setting [6]), the IC50 came to 0.17 nM.
Consider `COc1cc2c(cc1OC)-c1c/c(=N\c3c(C)cc(F)cc3C)n(CCNC(N)=O)c(=O)n1CC2` [Compound 5, (E)-1-(2-(2-((4-fluoro-2,6-dimethylphenyl)imino)-9,10-dimethoxy-4-oxo-6,7-dihydro-2H-pyrimido[6,1-a]isoquinolin-3(4H)-yl)ethyl)urea], for which the IC50 at PDE3A recombinant enzyme (setting [5]) fell in the range of 50 to 100 nM.
